Reference: patent US12194039B2, “Methods of treating heart failure by administering omecamtiv mecarbil” (Cytokinetics, Inc., priority 2020, dated 2025)
Where two headings read alike, the source gives them in different places.

Tests used:
[1] = system: patients with heart failure; conditions: result in words; cited from earlier work
[2] = sensitive P-gp substrate digoxin 0.5 mg SD, with OM 50 mg SD
[3] = sensitive MATE 1/2K substrate metformin 850 mg SD, with OM 25 mg BID
[4] = sensitive CYP3A substrate midazolam 5 mg SD, with OM 25 mg BID
[5] = sensitive BCRP substrate rosuvastatin 10 mg SD, with OM 50 mg SD

Question: What does the source list for C[C@H]1O[C@@H](O[C@H]2[C@@H](O)C[C@H](O[C@H]3[C@@H](O)C[C@H](O[C@H]4CC[C@@]5(C)[C@H](CC[C@@H]6[C@@H]5C[C@@H](O)[C@]5(C)[C@@H](C7=CC(=O)OC7)CC[C@]65O)C4)O[C@@H]3C)O[C@@H]2C)C[C@H](O)[C@@H]1O [Digoxin]?
Answer: % Change of co-administered drug Cmax (↑ = increase) [2]: ↑8%; Mean Ratio of co-administered drug AUC (90% CI) [2]: 1.06 (0.99-1.14); Mean Ratio of co-administered drug Cmax (90% CI) [2]: 1.08 (0.92-1.26)

Question: Which results are given for CN(C)C(=N)N=C(N)N [Metformin]?
Answer: Mean Ratio of co-administered drug AUC (90% CI) [3]: 0.99 (0.92-1.05); Mean Ratio of co-administered drug Cmax (90% CI) [3]: 1.10 (1.01-1.21)

Question: Which “% Change of co-administered drug AUC (↓ = decrease)” value [4] does the source give for Cc1ncc2n1-c1ccc(Cl)cc1C(c1ccccc1F)=NC2 [Midazolam] here?
Answer: The value was “↓18%”.

Question: And the “% Change of co-administered drug Cmax (↓ = decrease)” value [4]?
Answer: Its value is “↓10%”.

Question: What about the “Mean Ratio of co-administered drug AUC (90% CI)” value [4] of the same compound?
Answer: Its value is 0.82 (0.71-0.94).

Question: And the “Mean Ratio of co-administered drug Cmax (90% CI)” value [4]?
Answer: Its value is 0.90 (0.75-1.08).

Question: Which “% Change of co-administered drug AUC (↑ = increase)” value [5] does the source give for CC(C)c1nc(N(C)S(C)(=O)=O)nc(-c2ccc(F)cc2)c1/C=C/[C@@H](O)C[C@@H](O)CC(=O)O [Rosuvastatin] here?
Answer: Its value is “↑27%”.

Question: And the “% Change of co-administered drug Cmax (↑ = increase)” value [5]?
Answer: The value was “↑45%”.

Question: And the “Mean Ratio of co-administered drug AUC (90% CI)” value [5]?
Answer: The value was 1.27 (1.14-1.42).

Question: And the “Mean Ratio of co-administered drug Cmax (90% CI)” value [5]?
Answer: The value was 1.54 (1.33-1.79).

Question: For COC(=O)Nc1c(N)nc(-c2nn(Cc3ccccc3F)c3ncc(F)cc23)nc1N [vericiguat], which “Treatment efficacy at higher NT-proBNP concentrations” value [1] is on record?
Answer: Its value is “declined”.
